Target: USP30 (Homo sapiens (Human), UniProt Q70CQ3)
Test: USP30 biochemical IC50 assay
Conditions: read-out: IC50 range; fluorescence polarisation, TAMRA labelled peptide linked to ubiquitin; 30 min pre-incubation, read after 2 hr
Method: USP30 Biochemical IC50 Assay
Dilution plates were prepared at 21 times the final concentration (2100 μM for a final concentration of 100 μM) in 50% DMSO in a 96-well polypropylene V-bottom plate (Greiner #651201). A typical 8-point dilution series to be 100, 30, 10, 3, 1, 0.3, 0.1, 0.03 μM final. Reactions were performed in duplicate in black 384 well plates (small volume, Greiner 784076) in a final reaction volume of 21 μl. Either 1 μl of 50% DMSO or diluted compound was added to the plate. USP30 was diluted in reaction buffer (40 mM Tris, pH 7.5, 0.005% Tween 20, 0.5 mg/ml BSA, 5 mM—beta-mercaptoethanol) to the equivalent of 0.05 μl/well and 10 μl of diluted USP30 was added to the compound. Enzyme and compound were incubated for 30 min at room temp. Reactions were initiated by the addition of 50 nM of TAMRA labelled peptide linked to ubiquitin via an iso-peptide bond as fluorescence polarisation substrate. Reactions were read immediately after addition of substrate and following a 2 hr incubation at room temperature. Readings were performed on a Pherastar Plus (BMG Labtech). λ Excitation 540 nm; λ Emission 590 nm.

Sequence of USP30 (Q70CQ3 57-517): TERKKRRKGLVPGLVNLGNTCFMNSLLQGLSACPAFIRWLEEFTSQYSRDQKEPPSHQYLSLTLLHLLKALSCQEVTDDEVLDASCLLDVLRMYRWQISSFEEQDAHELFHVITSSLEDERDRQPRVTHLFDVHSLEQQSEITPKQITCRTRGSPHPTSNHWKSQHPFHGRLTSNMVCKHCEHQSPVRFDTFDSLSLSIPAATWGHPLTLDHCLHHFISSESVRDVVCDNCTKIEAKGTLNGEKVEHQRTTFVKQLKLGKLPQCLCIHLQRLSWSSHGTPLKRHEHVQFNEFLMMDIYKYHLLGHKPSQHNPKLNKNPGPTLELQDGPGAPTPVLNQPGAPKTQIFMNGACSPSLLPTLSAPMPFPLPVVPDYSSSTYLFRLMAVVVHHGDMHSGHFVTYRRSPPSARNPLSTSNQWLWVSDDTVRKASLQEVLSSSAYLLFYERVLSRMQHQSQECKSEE

| IC50 | SMILES |
| --- | --- |
| 100 to 1000 nM | C[C@H]1CN(C#N)C[C@@H]1N1CCN(c2cccc(N3CCOCC3)c2)S1(=O)=O [Example 41, (3S,4R)-3-methyl-4-(5-(3-morpholinophenyl)-1,1-dioxido-1,2,5-thiadiazolidin-2-yl)pyrrolidine-1-carbonitrile] |
| < 100 nM | COc1ccc(N2CCN([C@@H]3CCN(C#N)C3)S2(=O)=O)cc1-c1ccccc1 [Example 42, (R)-3-(5-(6-methoxy-[1,1′-biphenyl]-3-yl)-1,1-dioxido-1,2,5-thiadiazolidin-2-yl)pyrrolidine-1-carbonitrile] |
| 100 to 1000 nM | N#CN1CC[C@@H](N2CCN(c3ccc4nc(C(F)(F)F)[nH]c4c3)S2(=O)=O)C1 [Example 44, (R)-3-(1,1-dioxido-5-(2-(trifluoromethyl)-1H-benzo[d]imidazol-5-yl)-1,2,5-thiadiazolidin-2-yl)pyrrolidine-1-carbonitrile] |
| 1000 to 10000 nM | N#CN1CC[C@@H](NS(=O)(=O)Nc2ccc3nc(C(F)(F)F)[nH]c3c2)C1 [Example 45] |
| 1000 to 10000 nM | N#CN1CC[C@@H](N2CCCN(c3ccc4nc(C(F)(F)F)[nH]c4c3)S2(=O)=O)C1 [Example 46, (R)-3-(1,1-dioxido-6-(2-(trifluoromethyl)-1H-benzo[d]imidazol-6-yl)-1,2,6-thiadiazinan-2-yl)pyrrolidine-1-carbonitrile] |
| 100 to 1000 nM | N#CN1CC[C@H](N2CCN(c3cccc(-c4ccccn4)c3)S2(=O)=O)C1 [Example 47, (S)-3-(1,1-dioxido-5-(3-(pyridin-2-yl)phenyl)-1,2,5-thiadiazolidin-2-yl)pyrrolidine-1-carbonitrile] |
| 100 to 1000 nM | N#CN1CC[C@H](N2CCN(c3cccc(-c4cccnc4)c3)S2(=O)=O)C1 [Example 48, (S)-3-(1,1-dioxido-5-(3-(pyridin-3-yl)phenyl)-1,2,5-thiadiazolidin-2-yl)pyrrolidine-1-carbonitrile] |
| < 100 nM | N#CN1CC[C@@H](N2CCN(c3ccnc(N4CCOCC4)c3)S2(=O)=O)C1 [Example 50, (R)-3-(5-(2-morpholinopyridin-4-yl)-1,1-dioxido-1,2,5-thiadiazolidin-2-yl)pyrrolidine-1-carbonitrile] |
| 100 to 1000 nM | N#CN1CC[C@@H](N2CCN(c3nccc(N4CCOCC4)n3)S2(=O)=O)C1 [Example 51, (R)-3-(5-(4-morpholinopyrimidin-2-yl)-1,1-dioxido-1,2,5-thiadiazolidin-2-yl)pyrrolidine-1-carbonitrile] |
| 100 to 1000 nM | CN1CCN(c2cc(N3CCN([C@@H]4CCN(C#N)C4)S3(=O)=O)ccn2)CC1 [Example 52, (R)-3-(5-(2-(4-methylpiperazin-1-yl)pyridin-4-yl)-1,1-dioxido-1,2,5-thiadiazolidin-2-yl)pyrrolidine-1-carbonitrile] |
| 100 to 1000 nM | CO[C@@H]1CCN(c2cccc(N3CCN([C@@H]4CCN(C#N)C4)S3(=O)=O)c2)C1 [Example 53, (R)-3-(5-(3-((R)-3-methoxypyrrolidin-1-yl)phenyl)-1,1-dioxido-1,2,5-thiadiazolidin-2-yl)pyrrolidine-1-carbonitrile] |
| 100 to 1000 nM | CO[C@@H]1CCN(c2cc(N3CCN([C@@H]4CCN(C#N)C4)S3(=O)=O)ccn2)C1 [Example 54, (R)-3-(5-(2-((R)-3-methoxypyrrolidin-1-yl)pyridin-4-yl)-1,1-dioxido-1,2,5-thiadiazolidin-2-yl)pyrrolidine-1-carbonitrile] |
| 100 to 1000 nM | COC1CN(c2cc(N3CCN([C@@H]4CCN(C#N)C4)S3(=O)=O)ccn2)C1 [Example 55, (R)-3-(5-(2-(3-methoxyazetidin-1-yl)pyridin-4-yl)-1,1-dioxido-1,2,5-thiadiazolidin-2-yl)pyrrolidine-1-carbonitrile] |
| 100 to 1000 nM | COCCN(CCOC)c1cc(N2CCN([C@@H]3CCN(C#N)C3)S2(=O)=O)ccn1 [Example 56, (R)-3-(5-(2-(bis(2-methoxyethyl)amino)pyridin-4-yl)-1,1-dioxido-1,2,5-thiadiazolidin-2-yl)pyrrolidine-1-carbonitrile] |
| 100 to 1000 nM | N#CN1CCC(NS(=O)(=O)Nc2cccc(-c3ccccc3)c2)C1 (stereo not drawn) [Example 57, N-biphenyl-3-yl-N′-(1-cyanopyrrolidin-3-yl)sulfuric diamide] |
| 100 to 1000 nM | N#CN1CCC(NS(=O)(=O)Nc2ccc(-c3ccccc3)cc2)C1 (stereo not drawn) [Example 58, N-biphenyl-4-yl-N′-(1-cyanopyrrolidin-3-yl)sulfuric diamide] |
| 100 to 1000 nM | N#CN1CCC(NS(=O)(=O)N2CCC(c3ccccc3)CC2)C1 (stereo not drawn) [Example 59, N-(1-cyanopyrrolidin-3-yl)-4-phenylpiperidine-1-sulfonamide] |

| IC50 | SMILES |
| --- | --- |
| 100 to 1000 nM | N#CN1CCC(NS(=O)(=O)N2CCN(c3ccccc3)CC2)C1 (stereo not drawn) [Example 60, N-(1-cyanopyrrolidin-3-yl)-4-phenylpiperazine-1-sulfonamide] |
| 1000 to 10000 nM | N#CN1CCC(NS(=O)(=O)N2CCc3ccccc32)C1 (stereo not drawn) [Example 61, N-(1-cyanopyrrolidin-3-yl)indoline-1-sulfonamide] |
| 1000 to 10000 nM | N#CN1CC[C@@H](NS(=O)(=O)N2CCc3ccccc3C2)C1 [Example 62, (R)—N-(1-cyanopyrrolidin-3-yl)-3,4-dihydroisoquinoline-2(1H)-sulfonamide] |
| 100 to 1000 nM | N#CN1CC[C@@H](NS(=O)(=O)N2CCc3cc(-c4ccccc4)ccc32)C1 [Example 63, (R)—N-(1-cyanopyrrolidin-3-yl)-5-phenylindoline-1-sulfonamide] |
| 100 to 1000 nM | N#CN1CC[C@@H](NS(=O)(=O)N2CCc3c(-c4ccccc4)cccc32)C1 [Example 64, (R)—N-(1-cyanopyrrolidin-3-yl)-4-phenylindoline-1-sulfonamide] |
| 100 to 1000 nM | COc1ccc2c(c1)CCN(S(=O)(=O)N[C@@H]1CCN(C#N)C1)C2 [Example 65, (R)—N-(1-cyanopyrrolidin-3-yl)-6-methoxy-3,4-dihydroisoquinoline-2(1H)-sulfonamide] |
| 1000 to 10000 nM | CN1c2ccccc2N([C@@H]2CCN(C#N)C2)S1(=O)=O [Example 66, (R)-3-(3-methyl-2,2-dioxidobenzo[c][1,2,5]thiadiazol-1(3H)-yl)pyrrolidine-1-carbonitrile] |
| 100 to 1000 nM | N#CN1CC[C@@H](N2c3ccccc3N(Cc3ccccc3)S2(=O)=O)C1 [Example 67, (R)-3-(3-benzyl-2,2-dioxidobenzo[c][1,2,5]thiadiazol-1(3H)-yl)pyrrolidine-1-carbonitrile] |
| 1000 to 10000 nM | N#CN1CC[C@@H](N2c3ccccc3N(Cc3cccnc3)S2(=O)=O)C1 [Example 68, (R)-3-(2,2-dioxido-3-(pyridin-3-ylmethyl)benzo[c][1,2,5]thiadiazol-1(3H)-yl)pyrrolidine-1-carbonitrile] |
| 100 to 1000 nM | N#CN1CC[C@@H](N2Cc3ccccc3N(Cc3ccccc3)S2(=O)=O)C1 [Example 69, (R)-3-(1-benzyl-2,2-dioxido-1,4-dihydro-3H-benzo[c][1,2,6]thiadiazin-3-yl)pyrrolidine-1-carbonitrile] |
| 100 to 1000 nM | Cn1cc(-c2ccc3c(c2)NS(=O)(=O)N([C@@H]2CCN(C#N)C2)C3)cn1 [Example 71, (R)-3-(7-(1-methyl-1H-pyrazol-4-yl)-2,2-dioxido-1,4-dihydro-3H-benzo[c][1,2,6]thiadiazin-3-yl)pyrrolidine-1-carbonitrile] |
| 100 to 1000 nM | N#CN1CC[C@@H](N2Cc3ccc(-c4ccccc4)cc3NS2(=O)=O)C1 [Example 72, (R)-3-(2,2-dioxido-7-phenyl-1,4-dihydro-3H-benzo[c][1,2,6]thiadiazin-3-yl)pyrrolidine-1-carbonitrile] |
| 100 to 1000 nM | CN1c2cc(-c3ccccc3)ccc2CN([C@@H]2CCN(C#N)C2)S1(=O)=O [Example 73, (R)-3-(1-methyl-2,2-dioxido-7-phenyl-1,4-dihydro-3H-benzo[c][1,2,6]thiadiazin-3-yl)pyrrolidine-1-carbonitrile] |
| 1000 to 10000 nM | N#CN1CC[C@@H](N2Cc3cc(-c4ccccc4)ccc3NS2(=O)=O)C1 [Example 75, (R)-3-(2,2-dioxido-6-phenyl-1,4-dihydro-3H-benzo[c][1,2,6]thiadiazin-3-yl)pyrrolidine-1-carbonitrile] |
| 1000 to 10000 nM | CN(c1ccccc1)S(=O)(=O)N(C)C1CCN(C#N)C1 (stereo not drawn) [Example 76, N-(1-cyanopyrrolidin-3-yl)-N,N′-dimethyl-N′-phenylsulfuric diamide] |
| 1000 to 10000 nM | N#CN1CC[C@@H](N2Cc3cccc(N4CCOCC4)c3NS2(=O)=O)C1 [Example 77, (R)-3-(8-morpholino-2,2-dioxido-1,4-dihydro-3H-benzo[c][1,2,6]thiadiazin-3-yl)pyrrolidine-1-carbonitrile] |
